Assay results as given in the supplement of paper PMC8671470.
± gives the standard deviation of the averaged measurements.

What was measured:
Settings in all cases: 72 h
[1] = test system: LAMA-84
In short: (§1)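 Seeded in RPMI 1640 at densities within the linear growth range, fifteen myeloid leukaemia cell lines were dispensed into 384-well plates with acoustically pre-printed compounds spanning five tenfold doses from 1 to 10,000 nM, in duplicate. The plates were kept for 72 h at 37 °C in 5% CO2 before luminescent ATP viability was measured and normalised to vehicle and to a positive control at 10 µM. Curves were fitted with a four-parameter log-logistic model. The IC50 was taken from those curves.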

[2] = test system: ML-2
In short: as §1

[3] = test system: KCL-22
In short: as §1

[4] = test system: THP-1
In short: as §1

[5] = test system: MV4-11
In short: as §1

[6] = test system: K-562
In short: as §1

[7] = test system: HL-60
In short: as §1

[8] = test system: KU-812
In short: as §1

[9] = test system: SHI-1
In short: as §1

[10] = test system: KG-1
In short: as §1

[11] = test system: Mono-Mac-6
In short: as §1

[12] = test system: MOLM-13
In short: as §1

[13] = test system: HEL
In short: as §1

[14] = test system: NOMO-1
In short: as §1

[15] = test system: BV-173
In short: as §1

[16] = test system: HL-60; experiment: cell viability (% survival relative to DMSO control); higher = less cytotoxic
In short: (§2)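 In 384-well plates, the full library was rescreened in duplicate on HL-60 cells in RPMI 1640 with 10% FBS, at 1–10,000 nM in five tenfold concentrations, for 72 h at 37 °C, 5% CO2. Each run also held DMSO or 100 nM of one of three metabolic inhibitors. Viability was measured by CellTiter-Glo and normalised to DMSO wells and to wells with proteasome inhibitor, present at 10 μM. Any area under the curve comes from four-parameter log-logistic fitting with drc and PharmacoGx.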

[17] = test system: HL-60; experiment: area under dose-response curve (viability, 1 nM-10 uM) (fraction (0-1)); higher = more sensitive
In short: as §2

[18] = test system: LAMA-84; experiment: cell viability (% survival relative to DMSO control, bortezomib = 0%); higher = less cytotoxic
In short: (§3)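 After 72 h at 37 °C with 5% CO2, cell viability in 384-well plates was measured by CellTiter-Glo luminescence. The plates held compounds pre-printed at 1, 10, 100, 1000 or 10000 nM in duplicate, and cells from 10 AML and 5 CML lines seeded at densities titrated to linear growth. Percent survival is the duplicate mean, normalised to vehicle as 100% and a 10 µM positive control as 0%.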

[19] = test system: ML-2; experiment: as above
In short: as §3

[20] = test system: KCL-22; experiment: as above
In short: as §3

[21] = test system: THP-1; experiment: as above
In short: as §3

[22] = test system: MV4-11; experiment: as above
In short: as §3

[23] = test system: K-562; experiment: as above
In short: as §3

[24] = test system: HL-60; experiment: as above
In short: as §3

[25] = test system: KU-812; experiment: as above
In short: as §3

[26] = test system: SHI-1; experiment: as above
In short: as §3

[27] = test system: KG-1; experiment: as above
In short: as §3

[28] = test system: Mono-Mac-6; experiment: as above
In short: as §3

[29] = test system: MOLM-13; experiment: as above
In short: as §3

[30] = test system: HEL; experiment: as above
In short: as §3

[31] = test system: NOMO-1; experiment: as above
In short: as §3

[32] = test system: BV-173; experiment: as above
In short: as §3

CCOC(=O)c1cncn1[C@H](C)c1ccccc1 [Etomidate]
Settings | IC50 (cell viability) [µM]
[1] | > 10
[2] | > 10
[3] | > 10
[4] | > 10
[5] | > 10
[6] | > 10
[7] | > 10
[8] | > 10
[9] | > 10
[10] | > 10
[11] | > 10
[12] | > 10
[13] | > 10
[14] | > 10
[15] | > 10

Cn1cc(-c2ccncc2)c(-c2ccc(OCc3ccc4ccccc4n3)cc2)n1
cell viability [%], [16]
Settings | 0.001 µM | 0.01 µM | 0.1 µM | 1 µM | 10 µM
co-treatment: AZD3965 100 nM | 94.1 ± 10 | 101 ± 4.6 | 101 ± 5.4 | 96.7 ± 2.9 | 103 ± 1.1
co-treatment: DMSO vehicle | 99.1 ± 7.1 | 94.8 ± 5.4 | 102 ± 4.4 | 98.248 ± 0.0026 | 101 ± 3.4
co-treatment: GSK2194069 100 nM | 103 ± 15 | 101 ± 7.9 | 107 ± 1.9 | 90.9 ± 7.4 | 81.8 ± 1.1
co-treatment: pictilisib 100 nM | 98.7 ± 28 | 101 ± 11 | 114 ± 12 | 94.4 ± 5.6 | 107 ± 27

[17]
Settings | area under dose-response curve
co-treatment: AZD3965 100 nM | < 0.0301
co-treatment: DMSO vehicle | < 0.0301
co-treatment: GSK2194069 100 nM | 0.05
co-treatment: pictilisib 100 nM | 0.05

N#Cc1ccnc(N2C(=O)CC[C@H]2C(=O)N(c2cncc(F)c2)C(C(=O)NC2CC(F)(F)C2)c2ccccc2Cl)c1 (some centres undefined) [Ivosidenib]
cell viability [%]
Settings | 1 nM | 10 nM | 100 nM | 1000 nM | 10000 nM
[18] | 112 | 101 | 110 | 107 | 81.4
[19] | 107 | 85.4 | 105 | 98.1 | 92
[20] | 92.3 | 95.3 | 110 | 99 | 93.3
[21] | 103 | 94.9 | 107 | 102 | 96
[22] | 98 | 104 | 107 | 110 | 94.5
[23] | 90.3 | 105 | 101 | 99.2 | 93.3
[24] | 112 | 100 | 116 | 95.3 | 92.1
[25] | 92.7 | 102 | 107 | 106 | 87.4
[26] | 99.1 | 104 | 100 | 95.4 | 104
[27] | 92.4 | 105 | 106 | 98.2 | 78.2
[28] | 97.8 | 88.9 | 108 | 90.2 | 81.5
[29] | 111 | 103 | 109 | 96 | 95.1
[30] | 89.5 | 104 | 114 | 105 | 121
[31] | 97.8 | 95.6 | 103 | 104 | 90.8
[32] | 93.2 | 95.1 | 95.8 | 104 | 92.2

Settings | IC50 (cell viability) [µM]
[1] | > 10
[2] | > 10
[3] | > 10
[4] | > 10
[5] | > 10
[6] | > 10
[7] | > 10
[8] | > 10
[9] | > 10
[10] | > 10
[11] | > 10
[12] | > 10
[13] | > 10
[14] | > 10
[15] | > 10

CCOC(=O)c1ccc(-c2ccc(OC(=O)N(C)Cc3cccc(-c4ccncc4)c3)cc2)cc1 [WWL113]
cell viability [%]
Settings | 1 nM | 10 nM | 100 nM | 1000 nM | 10000 nM
[18] | 113 | 104 | 94.8 | 114 | 101
[19] | 104 | 101 | 94.7 | 106 | 106
[20] | 132 | 95.4 | 98.7 | 92.9 | 110
[21] | 114 | 101 | 95.2 | 101 | 102
[22] | 129 | 101 | 105 | 103 | 93.3
[23] | 121 | 105 | 94 | 92.1 | 87.5
[24] | 103 | 91.3 | 89.1 | 114 | 125
[25] | 112 | 100 | 105 | 91.6 | 92
[26] | 114 | 100 | 92 | 95.2 | 108
[27] | 99.2 | 93.4 | 92.7 | 94.3 | 107
[28] | 108 | 112 | 102 | 94.2 | 109
[29] | 120 | 122 | 97.3 | 85.8 | 105
[30] | 134 | 99.2 | 91.9 | 104 | 99.6
[31] | 104 | 106 | 88.1 | 104 | 105
[32] | 123 | 114 | 102 | 105 | 94.9

Settings | IC50 (cell viability) [µM]
[1] | > 10
[2] | > 10
[3] | > 10
[4] | > 10
[5] | > 10
[6] | > 10
[7] | > 10
[8] | > 10
[9] | > 10
[10] | > 10
[11] | > 10
[12] | > 10
[13] | > 10
[14] | > 10
[15] | > 10
